Marks after values point to notes of the source that are not given here.
How the values were obtained:
hA3AR [1] = biological target: T1, hA3AR (Homo sapiens, UniProt P0DMS8); assay: Wash-out assay, [3H]PSB-11 binding after washing; settings: 1 μM compound, pre-incubated 2 h at 25 °C, washed 4 times
T1 construct: expressed in transfected cells; host or cells: CHO cells (CHOhA3AR), gift of Prof; K.N. Klotz, University of Würzburg; used as membrane fractions or live cells
T1 sequence (P0DMS8 1-318): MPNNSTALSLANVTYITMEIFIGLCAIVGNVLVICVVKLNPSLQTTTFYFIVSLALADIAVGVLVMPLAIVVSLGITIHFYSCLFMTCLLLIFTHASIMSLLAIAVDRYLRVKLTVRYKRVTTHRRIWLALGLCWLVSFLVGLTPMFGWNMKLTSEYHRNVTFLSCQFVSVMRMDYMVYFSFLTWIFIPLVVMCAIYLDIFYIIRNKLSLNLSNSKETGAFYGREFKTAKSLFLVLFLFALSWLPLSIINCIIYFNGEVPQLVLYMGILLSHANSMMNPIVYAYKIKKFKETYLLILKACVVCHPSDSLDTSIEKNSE
Description: 200 μL assay buffer (50 mM Tris–HCl, pH 8.0, 10 mM MgCl2, 1 mM EDTA and 0.01% CHAPS), 100 μL assay buffer containing the competing ligand (final concentration: 1 μM), and 100 μL of CHOhA3AR membrane fractions (100 μg protein) were combined and pre-incubated for 2 h at 25 °C while shaking. The ‘4× washed’ samples were centrifuged (5 min, 13,000 rpm, 4 °C), and the supernatant was removed. The resulting pellet was dissolved in 1 mL of assay buffer and incubated for 10 min at 25 °C while shaking. The ‘4× washed’ samples were then again centrifuged (2 min, 13,000 rpm, 4 °C), the supernatant was removed, and the resulting pellet was dissolved in 1 mL of assay buffer. The latter washing steps were repeated two times (four times washing total), and the final pellet was dissolved in 300 μL assay buffer. The radioligand (10 nM [^3H]PSB-11) in 100 μL of assay buffer was added to all samples, and the samples were incubated at 25 °C for 1 h. Nonspecific binding was determined in the presence of 100 μM NECA. Incubations were terminated by addition of 1 mL of ice-cold washing buffer (50 mM Tris–HCl, pH 8.0, 10 mM MgCl2, 1 mM EDTA) and rapid vacuum filtration through prewetted 96-well GF/B filter plates using a Brandel harvester. Filters were subsequently washed 5 times with ice-cold wash buffer. The plates were dried under vacuum, and a MicroscintTM-20 cocktail (PerkinElmer) was added subsequently. After 3 h, the filter-bound radioactivity was determined using a 2450 MicroBeta Microplate Counter (PerkinElmer).

hA3AR [2] = biological target: T1, hA3AR; assay: Full curve radioligand displacement assay on the adenosine A3 receptor, [3H]PSB-11; assay type: binding; settings: mean ± SEM, n=3; for apparent pKi (pre-0 h) / apparent pKi (pre-4 h): CHO-hA3AR membranes, 25 °C; for apparent pKi (pre-0 h): 0.5 h co-incubation of probe and radioligand, no pre-incubation; for apparent pKi (pre-4 h): 4 h pre-incubation with probe then 0.5 h co-incubation with radioligand; for fold change, ratio Ki(0 h)/Ki(4 h): hA3AR
Description: Membrane aliquots containing 15 μg of protein (CHOhA3AR) were resuspended in assay buffer (50 mM Tris–HCl, pH 8.0, 10 mM MgCl2, 1 mM EDTA, 0.01% CHAPS). The competing ligand (concentrations ranging from 0.1 to 1000 nM) was added and pre-incubated with the membrane fractions for either 0 or 4 h. The radioligand (10 nM [^3H]PSB-11) was then added and incubated with the samples in a total volume of 100 μL of assay buffer for 30 min at 25 °C. Nonspecific binding was determined in the presence of 100 μM NECA. Incubations were terminated by rapid vacuum filtration through prewetted 96-well GF/C filter plates using a PerkinElmer Filtermate harvester. Filters were subsequently washed 12 times with ice-cold wash buffer (50 mM Tris–HCl, pH 8.0, 10 mM MgCl2, 1 mM EDTA). The plates were dried at 55 °C, and MicroscintTM-20 cocktail (PerkinElmer) was added subsequently. After 3 h, the filter-bound radioactivity was determined using a Tri-Carb 2810TR Liquid Scintillation Analyzer (PerkinElmer).
[…]. Single point displacement values shown are mean percentages of two individual experiments performed in duplicate. All pKi values shown are mean values ± SEM of three individual experiments performed in duplicate. Statistical analysis was performed using a one-way ANOVA test with multiple comparisons (****p < 0.0001).

hA3AR [3] = biological target: T1, hA3AR; assay: SDS-PAGE labeling in CHO membrane fractions, click to Cy5-N3; assay type: binding; settings: 50 nM probe, compared with 5 and 13
Description: Membrane fractions were prepared as mentioned above and diluted to a concentration of 1 μg/μL. 18 μL of membrane fractions from either CHOhA3AR or CHO-K1 cells were taken. 1 μL of competing ligand (PSB-11, unless noted otherwise) was added (final concentration: 1 μM in 0.05% DMSO in assay buffer), and the samples were shaken for 30 min at rt. 1 μL of affinity-based probe was then added (final concentration: 50 nM in 0.05% DMSO in assay buffer, unless noted otherwise), and the samples were shaken for 1 h at rt. Deglycosylation was initiated by addition of 0.5 μL of PNGaseF (5 U), 0.5 μL of MilliQ water for the control samples, and the samples were shaken for 1 h at rt. The click mix was freshly prepared by adding together 5 parts 100 mM CuSO4 in MilliQ, 3 parts 1 M sodium ascorbate (NaAsc) in MilliQ, 1 part 100 mM Tris(3-hydroxypropyltriazolylmethyl)amine (THPTA) in MilliQ, and 1 part 100 μM Cy5-N3 in DMSO. […] In-gel fluorescence was measured on a Bio-Rad Universal Hood III using Cy3 (605/50 filter) or Cy5 (695/55 filter) settings. […]
Gel images were analyzed using Image Lab software version 6.0.1 (Bio-Rad). Quantification was done in the following manner: the area under the curve (AUC) of the bands was selected using the ‘Lane Profile’ tab and the adjusted volumes were taken. […]

Compound | binding to hA3AR after wash-out ([3H]PSB-11 binding recovery) (hA3AR [1]) | apparent pKi (pre-0 h) (hA3AR [2]) | apparent pKi (pre-4 h) (hA3AR [2]) | fold change, ratio Ki(0 h)/Ki(4 h) (hA3AR [2]) | off-target labeling on gel (hA3AR [3])
C#CCN(CCCn1c(=O)n(CCC)c(=O)c2c1nc1cc(OC)ccn12)C(=O)c1ccc(S(=O)(=O)F)cc1 [compound 5, 4-((3-(8-Methoxy-2,4-dioxo-3-propyl-3,4-dihydropyrido[2,1-f]purin-1(2H)-yl)propyl)(prop-2-yn-1-yl)carbamoyl)benzenesulfonyl fluoride] | persistent binding | 7.55 ± 0.01 | 8.52 ± 0.05 ^d | 9.5 ± 1.0 | –
C#CCOc1ccn2c(c1)nc1c2c(=O)n(CCC)c(=O)n1CCCNC(=O)c1ccc(S(=O)(=O)F)cc1 [compound 9, 4-((3-(2,4-Dioxo-8-(prop-2-yn-1-yloxy)-3-propyl-3,4-dihydropyrido[2,1-f]purin-1(2H)-yl)propyl)carbamoyl)benzenesulfonyl fluoride] | persistent binding | 7.27 ± 0.07 | 8.40 ± 0.03 ^d | 13.5 ± 1.2 | fewer other proteins labeled
